According to the supplement of paper PMC11208160:

Assay: recombinant UMI read abundance after kanamycin selection (control-corrected) (log10(CPM+1)); higher = more efficient recombination; extreme values may be limits of the assay; sequences stand for … in AGTGCAGAGAAAATCGGCCAGTTTTCTCTGCCTGCAGTCCGCATGCCGTGGGACCCCTTGGGTTCTAACCTGTTGCCTAGATTTATGCAGCGGACTGCCTTTCTCCCAAAGTGATAAACCGG…AGGTTGGTTTCACT; site = the 11-nt donor
In short: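 Values, expressed as log10(CPM+1), derive from recombinant UMI counts converted to CPM, averaged across replicates and scaled by control-derived factors. Plating was with IPTG (0.07 mM) plus kanamycin or unselected, two replicates each. The screen pooled donor and donor-binding-loop pairs for the IS621 bridge recombinase in Escherichia coli.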
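Further: IS621 bridge recombinase in Escherichia coli cells against a fixed T5 target plasmid.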

“ACAGGACCATGGACCGGTTTTCCCGGTAATCCGTATTTGGA (site ACAGGACCTTC)” and “GATTATCCATGGACCGGTTTTCCCGGTAATCCGTATTTGTT (site GATTATCCTAG)” are within 0.2 log units of each other in “recombinant UMI read abundance (log10)” value: 0.00625 for the first, 0 for the second.

First: TATCTTTCATGGACCGGTTTTCCCGGTAATCCGTATTTGAT (site TATCTTTCTAT)
Second: ACACGAACATGGACCGGTTTTCCCGGTAATCCGTATTTGTG (site ACACGAACTCA)
The “recombinant UMI read abundance (log10)” value of the first is lower: 0 for the first, 1.91 for the second.

First: GGCACGCCATGGACCGGTTTTCCCGGTAATCCGTATTTGTA (site GACACGCCTTA)
Second: GTTAGAGCATGGACCGGTTTTCCCGGTAATCCGTATTTGGC (site GTTAGAACTGC)
The “recombinant UMI read abundance (log10)” value of the first is lower: 0.00602 for the first, 2.02 for the second.

“GGGGCATCATGGACCGGTTTTCCCGGTAATCCGTATTTGCA (site GGGGCATCTTG)” and “GGTGAGTCATGGACCGGTTTTCCCGGTAATCCGTATTTGGC (site GGTGAGTCTGC)” are within 0.2 log units of each other in “recombinant UMI read abundance (log10)” value: 2.13 for the first, 2.23 for the second.

First: GACACATCATGGACCGGTTTTCCCGGTAATCCGTATTTGGT (site GACACATCTAC)
Second: GGACTTCCATGGACCGGTTTTCCCGGTAATCCGTATTTGAA (site GGACTTCCTTT)
The “recombinant UMI read abundance (log10)” value of the first is higher: 2.25 for the first, 1.42 for the second.

Going from “CGGAACACATGGACCGGTTTTCCCGGTAATCCGTATTTGCA (site AGGAAGACTTG)” to “ACGACCACATGGACCGGTTTTCCCGGTAATCCGTATTTGTT (site ACGACCACTAA)”, the “recombinant UMI read abundance (log10)” value rises from 0.0118 to 1.29.

“TAAAGTCCATGGACCGGTTTTCCCGGTAATCCGTATTTGTA (site TCAAGTCCTTA)” and “AAGCATGCATGGACCGGTTTTCCCGGTAATCCGTATTTGGG (site AAGCAAGCTCC)” are within 0.2 log units of each other in “recombinant UMI read abundance (log10)” value: 0.0268 for the first, 0.0205 for the second.

Compared with “CCTAAGTCATGGACCGGTTTTCCCGGTAATCCGTATTTGCA (site CCTAAGTCTTG)”, “TTATCATCATGGACCGGTTTTCCCGGTAATCCGTATTTGCT (site CGATCATCTAG)” is higher in “recombinant UMI read abundance (log10)” value: 0 for the first, 0.595 for the second.

Compared with “GAAGATTCATGGACCGGTTTTCCCGGTAATCCGTATTTGCT (site GAAGATTCTAA)”, “ACCGTATCATGGACCGGTTTTCCCGGTAATCCGTATTTGCA (site ACGGTATCTTG)” is higher in “recombinant UMI read abundance (log10)” value: 0.178 for the first, 0.962 for the second.

First: CACTCCTCATGGACCGGTTTTCCCGGTAATCCGTATTTGCG (site CACTCCTCTTG)
Second: ACATCTACATGGACCGGTTTTCCCGGTAATCCGTATTTGTG (site ACATCTTCTCA)
The “recombinant UMI read abundance (log10)” value of the first is higher: 2.29 for the first, 0.234 for the second.

“GAATGGCCATGGACCGGTTTTCCCGGTAATCCGTATTTGCA (site GAATGGCCTTA)” and “GACAACCCATGGACCGGTTTTCCCGGTAATCCGTATTTGGT (site GACAAGCCTAC)” are within 0.2 log units of each other in “recombinant UMI read abundance (log10)” value: 0.0192 for the first, 0.00882 for the second.

“CGATCAACATGGACCGGTTTTCCCGGTAATCCGTATTTGTT (site CGATCTACTAA)” and “CGTTTAGCATGGACCGGTTTTCCCGGTAATCCGTATTTGCT (site CGTTTAGCTAG)” are within 0.2 log units of each other in “recombinant UMI read abundance (log10)” value: 0.00984 for the first, 0 for the second.

Going from “TACAAGGCATGGACCGGTTTTCCCGGTAATCCGTATTTGGT (site TACAAGGCTAC)” to “GTACTTCCATGGACCGGTTTTCCCGGTAATCCGTATTTGCT (site GTACTTCCTAG)”, the “recombinant UMI read abundance (log10)” value rises from 0.732 to 1.14.

First: ACTTTATCATGGACCGGTTTTCCCGGTAATCCGTATTTGCA (site ACTTTATCTTG)
Second: CACTGGGCATGGACCGGTTTTCCCGGTAATCCGTATTTGGA (site CACTGGGCTTC)
The “recombinant UMI read abundance (log10)” value of the first is higher: 1.85 for the first, 1.12 for the second.

First: TGCTGCACATGGACCGGTTTTCCCGGTAATCCGTATTTGAA (site TGCTGCACTTT)
Second: CGATCCACATGGACCGGTTTTCCCGGTAATCCGTATTTGTT (site CGATCCACTAA)
The “recombinant UMI read abundance (log10)” value of the first is lower: 0.0328 for the first, 2.11 for the second.

Going from “GAGGAACCATGGACCGGTTTTCCCGGTAATCCGTATTTGGA (site GAGGAACCTTC)” to “CGATCATCATGGACCGGTTTTCCCGGTAATCCGTATTTGCT (site CTCTCATCTAG)”, the “recombinant UMI read abundance (log10)” value rises from 0.00548 to 0.961.

Going from “CGATCATCATGGACCGGTTTTCCCGGTAATCCGTATTTGCT (site CGATGATCTAG)” to “CTTCAGTCATGGACCGGTTTTCCCGGTAATCCGTATTTGGC (site CTTCAGTCTGC)”, the “recombinant UMI read abundance (log10)” value rises from 0 to 0.339.

“CACCGTCCATGGACCGGTTTTCCCGGTAATCCGTATTTGAT (site GACCGTCCTAT)” and “TCAGATACATGGACCGGTTTTCCCGGTAATCCGTATTTGCG (site TCAGAAACTCG)” are within 0.2 log units of each other in “recombinant UMI read abundance (log10)” value: 0.00326 for the first, 0 for the second.

Going from “AAGCATGCATGGACCGGTTTTCCCGGTAATCCGTATTTGGG (site AAGCACGCTCC)” to “GTTCGAGCATGGACCGGTTTTCCCGGTAATCCGTATTTGCT (site GTTCGAGCTCG)”, the “recombinant UMI read abundance (log10)” value rises from 0.00447 to 0.664.

Compared with “CCCCCCACATGGACCGGTTTTCCCGGTAATCCGTATTTGTA (site CCCCGCACTTA)”, “ATAGTATCATGGACCGGTTTTCCCGGTAATCCGTATTTGCC (site ATAGTATCTGG)” is higher in “recombinant UMI read abundance (log10)” value: 0.0126 for the first, 3.34 for the second.

Going from “AGGATCCCATGGACCGGTTTTCCCGGTAATCCGTATTTGTG (site AGGTTCCCTCA)” to “CAAAATGCATGGACCGGTTTTCCCGGTAATCCGTATTTGAC (site CAAAATGCTGT)”, the “recombinant UMI read abundance (log10)” value rises from 0.051 to 2.14.

“GGTCCAACATGGACCGGTTTTCCCGGTAATCCGTATTTGCA (site GGTCCAACTTC)” and “CGGAATCCATGGACCGGTTTTCCCGGTAATCCGTATTTGTT (site CCGAAACCTAA)” are within 0.2 log units of each other in “recombinant UMI read abundance (log10)” value: 0.107 for the first, 0.0076 for the second.

Going from “AGGTCAGCATGGACCGGTTTTCCCGGTAATCCGTATTTGGG (site AGGTCAGCTCC)” to “TACACCGCATGGACCGGTTTTCCCGGTAATCCGTATTTGTA (site TACACCGCTTA)”, the “recombinant UMI read abundance (log10)” value rises from 0.00675 to 1.36.

“CCATTCTCATGGACCGGTTTTCCCGGTAATCCGTATTTGGG (site CCGTTCTCTCC)” and “CAATGCTCATGGACCGGTTTTCCCGGTAATCCGTATTTGAA (site CAGTGCTCTTT)” are within 0.2 log units of each other in “recombinant UMI read abundance (log10)” value: 0.00306 for the first, 0.102 for the second.

Compared with “CATGCATCATGGACCGGTTTTCCCGGTAATCCGTATTTGCT (site CATGCATCTAG)”, “GTTCGTGCATGGACCGGTTTTCCCGGTAATCCGTATTTGCA (site GTTCGGGCTTG)” is lower in “recombinant UMI read abundance (log10)” value: 1.49 for the first, 0.36 for the second.

Compared with “TCAGCTACATGGACCGGTTTTCCCGGTAATCCGTATTTGAG (site TCAGCTACTCT)”, “CGATCATCATGGACCGGTTTTCCCGGTAATCCGTATTTGCT (site CGTTCATCTAT)” is lower in “recombinant UMI read abundance (log10)” value: 0.878 for the first, 0 for the second.

“CCTGGCTCATGGACCGGTTTTCCCGGTAATCCGTATTTGCA (site CCTGGCTCTTG)” and “GGCCACCCATGGACCGGTTTTCCCGGTAATCCGTATTTGTG (site GGCCACCCTTA)” are within 0.2 log units of each other in “recombinant UMI read abundance (log10)” value: 0 for the first, 0.0265 for the second.

“TCCACCGCATGGACCGGTTTTCCCGGTAATCCGTATTTGCG (site TCCCCCGCTCG)” and “CGGAATCCATGGACCGGTTTTCCCGGTAATCCGTATTTGTT (site CTGAACCCTAA)” are within 0.2 log units of each other in “recombinant UMI read abundance (log10)” value: 0.1 for the first, 0.0207 for the second.

For “CGGAGTCCATGGACCGGTTTTCCCGGTAATCCGTATTTGTT (site CGGACTCCTAA)”, the “recombinant UMI read abundance (log10)” value was 0.011.
